The text below walks through data of patent US20070265289A1, “2-Aminopyrimidine Derivative” (priority 2004, published 2007).

The structures appear in SMILES notation.

For assay [1], the target named is T1, rat IKK2 (Rattus norvegicus, UniProt Q9QY78).
T1 construct: ORF of rat IKK2 (GenBank AF115282) was cloned from a rat pancreas cDNA library; FLAG; made in house; host or cells: Sf9 insect cells
T1 sequence (Q9QY78 1-757): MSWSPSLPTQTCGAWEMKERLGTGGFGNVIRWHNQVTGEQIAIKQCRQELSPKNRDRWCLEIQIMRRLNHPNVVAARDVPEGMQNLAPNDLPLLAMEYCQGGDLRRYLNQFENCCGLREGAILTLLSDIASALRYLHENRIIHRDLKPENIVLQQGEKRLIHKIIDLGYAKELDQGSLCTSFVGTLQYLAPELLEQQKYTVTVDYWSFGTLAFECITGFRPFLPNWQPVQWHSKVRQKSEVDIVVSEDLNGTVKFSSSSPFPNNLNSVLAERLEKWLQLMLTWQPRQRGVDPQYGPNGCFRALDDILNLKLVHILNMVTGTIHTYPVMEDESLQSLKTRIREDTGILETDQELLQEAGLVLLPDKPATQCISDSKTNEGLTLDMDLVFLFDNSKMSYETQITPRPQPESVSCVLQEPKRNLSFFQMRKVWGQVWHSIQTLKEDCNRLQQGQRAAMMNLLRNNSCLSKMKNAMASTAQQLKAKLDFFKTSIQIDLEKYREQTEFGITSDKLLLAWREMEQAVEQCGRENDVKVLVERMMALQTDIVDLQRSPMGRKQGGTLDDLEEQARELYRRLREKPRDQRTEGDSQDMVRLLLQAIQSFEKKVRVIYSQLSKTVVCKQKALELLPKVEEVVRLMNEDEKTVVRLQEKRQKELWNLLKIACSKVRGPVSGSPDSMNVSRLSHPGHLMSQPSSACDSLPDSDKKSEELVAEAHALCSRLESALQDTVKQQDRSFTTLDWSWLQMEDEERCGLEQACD
The assay is described as follows: Evaluation of rat IKK2 enzyme inhibition. As to conditions: 0.5 μM ATP, probit analysis; read-out: IC50, rat IKK2 enzyme activity-inhibitory effect. Type of assay: biochemical. The method, then:
(1) Evaluation of Rat IKK2 Enzyme Inhibition:
ORF of rat IKK2 (GenBank AF115282) was cloned from a rat pancreas cDNA library, and with a FLAG-tag attached thereto, it was expressed in an Sf9 cell line. The cells were dissolved in a cytolytic solution (50 mM Tris-HCl pH 7.5, 0.15M NaCl, 1% NP-40, 10% glycerol, 1 mM EDTA, 1 mM EGTA pH 7.5, 1 mM Na3VO4, 5 mM p-nitrophenylphosphate, 10 mM O-glycerophosphate, 1 mM DTT, 1 mM PMSF, 10 μg/ml leupeptin, 10 μg/ml aprotinin (by Sigma)) to prepare a large amount of an cell extract, which was then purified on an anti-FLAG M2 antibody (by Sigma). This experimental operation was carried out in accordance with gene manipulation experiment manuals such as known methods (Sambrook, J. et al, Molecular Cloning-A Laboratory Manual, Cold Spring Harbor laboratory, NY, 1989) or the instructions attached to the reagents. The purified rat IKK2 was stored in an enzyme preservative (20 mM Tris-HCl pH 7.5, 10% glycerol, 12.5 mM β-glycerophosphate, 0.5 mM EDTA, 0.5 mM EGTA, 0.05% Brij35, 1 mM DTT, 1 mM PMSF (by Sigma)) at −80° C.
The purified rat IKK2, 1× enzymatic reaction buffer (20 mM Tris-HCl pH 7.5, 12.5 mM O-glycerophosphate, 20 mM MgCl2, 0.1 mM DTT), 0.01% BSA (by Sigma), 0.5 μM ATP, 0.2 μM biotinated substrate peptide (18th to 49th amino acid residues of rat I-kappa B alpha (GenBank Q63746)) and a test compound dissolved in DMSO were added to a 384-well plate (catalogue No. 3677, by Corning) to be 10 μl in total therein, and left at room temperature for 90 minutes. Next, […] of a reaction stopper (100 mM Hepse pH 8, 0.01% BSA, 0.8 M KF, 50 mM EDTA pH 8, 1% Triton X-100, europium cryptate-labeled anti-phosphorylation I-kappa B alpha-antibody (by Santa Cru), streptoavidin-labeled XL665 (by Nihon Schering)) was added thereto, kept warmed for 30 minutes, and then assayed with DISCOVERY (by Perkin-Elmer). The rat IKK2 enzyme activity-inhibitory effect of the tested compound was obtained according to the following formula. Every dose was tested independently three times. Inhibition (%) by Test Compound=((mean value with rat IKK2 but not with test compound)−(mean value with both test compound and rat IKK2))/((mean value with rat IKK2 but not with test compound)−(mean value not with rat IKK2))×100.

Assay [2] concerns carrageenan paw edema. As to the kind of experiment: Rat carrageenan paw edema model. Conditions: for edema inhibitory activity: 30 mg/kg oral administration, 3 hours after carrageenan. In kind it is in vivo, Sprague-Dawley male rats. As for the experimental part: (3) Rat Carrageenan Paw Edema Model:
After their body weight was measured, Sprague-Dawley male rats (6-10 weeks age, male, by Nippon SLC) were divided into groups of 5 rats each in such a manner that the mean body weight of each group could be on the same level. Next, a test compound was orally administered to the rats (but 10 mL/kg of solvent alone was administered to those of the control group). 30 minutes after the test compound administration thereto, 100 μL of a 1% carrageenan (by Sigma Aldrich Japan) solution was subcutaneously injected to the sub-plantar of the right foot of each rat to induce inflammation. 3 hours after the inflammation induction, the rats were killed by deep anesthetization with ether, and their tissue below the right and left ankles was cut and collected and its weight was measured.
The test result was obtained as follows: In every rat, the weight of the left foot with no carrageenan injection thereto was subtracted from the weight of the right foot with carrageenan injection thereto, 3 hours after the carrageenan injection, thereby calculating the weight difference (g) therebetween. The edema inhibition in the test compound-administered rats was calculated relative to the mean value of the rats of the control group. For multi-group comparison between the control group and the test compound administration group, employed was a Dunnett multiple comparison test, in which the P value less than 0.05 was considered as statistical significance. All the above statistical analyses were carried out, using SAS.
On the technique in general: The carrageenan paw model is a standard test of acute inflammation.

The test system of assay [3] is collagen-induced rheumatoid arthritis. As to the kind of experiment: Rat collagen-induced rheumatoid arthritis model. Type of assay: in vivo. Conditions: oral administration at a dose of 30 mg/kg, 14 days. The method, then:
(4) Collagen-Induced Rheumatoid Arthritis Model:
The effect to rat collagen-induced rheumatoid arthritis was evaluated according to a partial modification of the method described in The Japanese Journal of Pharmacology, 1997 August; 74(4): 313-22.
10 mL of a 1 mg/mL solution of bovine-derived type 2 collagen (by Cosmobio) diluted three-fold with acetic acid was mixed with adjuvant incomplete Freund (by Difco) in 1/1, and emulsified to give an emulsion for sensitization. The tail root of each rat in a control group and in a test compound administration group was disinfected with ethanol, and collagen-sensitized through intradermal injection of 0.4 mL of the emulsion containing […] of collagen thereinto to thereby induce rheumatoid arthritis. The rats in the non-sensitized group were not treated for collagen sensitization. To the rats of the control group, 10 mL/kg of 0.5% methyl cellulose was orally administered. To the rats of the test compound administration group, a compound of the invention was orally administered. One week after the sensitization, the administration continued for 14 days. The degree of inflammation was judged by measuring the rheumatoid arthritis scores of the four limbs of each rat (scoring). Briefly, the symptom of each articulation was visually grouped into the following four ranks (0: normal, 1: flare or light swelling, 2: middle swelling, 3: heavy swelling or joint ankylosis); and the total of the numerical data of the four limbs is referred to as the rheumatoid arthritis score. The scoring was carried out every other day after the development of rheumatoid arthritis. The cumulative rheumatoid arthritis score was calculated by totaling the rheumatoid arthritis scores on every scoring date of every individual. Relative to the mean cumulative rheumatoid arthritis score of rats of the control group, the inhibition by the those of the test compound administration group was calculated, and the mean value of the data was shown.

For assay [4], the system named is TNF-α production. The assay is described as follows: Mouse LPS-induced TNF-α production model. In kind it is in vivo, Balb/c female mice. As to conditions: Mus musculus, po, 1.5 h, oral administration of 30 mg/kg, 60 minutes before LPS, blood 90 minutes after LPS; read-out: inhibition of plasma TNF-α. The method, then: (2) Mouse LPS-Induced TNF-α Production Model:
6 weeks old Balb/c female mice were placed into two groups, a control group and a test compound administration group. A solution containing 10 μg/mouse of LPS in 0.9% physiological salt was administered by intraperitoneal injection into the control mice. 60 minutes before the LPS administration, a compound of the invention was orally administered to the mice of the test compound administration group. Under anesthesia with diethyl ether, blood was collected from the posterior venous cavity of the mice of both the test compound administration group and the control group at 90 minutes after the LPS administration, and treated with heparin, and the plasma was separated from it through centrifugation at 10000 rpm at 4° C. for 10 minutes, and then diluted two-fold with PBS (pH 7.4).
The TNF-α concentration in the sample was determined with an ELISA kit (by Pharmingen, San Diego, Calif.). The inhibition by the mice of the test compound administration group relative to the mean inhibition by those of the control group was calculated as a mean value thereof.
The inhibition in oral administration of 30 mg/kg of compound (I) is shown below.

The term IC50 denotes the concentration that inhibits the measured activity by half.

`Cc1ccc(-c2cc(C3CCCNC3)nc(N)n2)c(O)c1` (stereo not drawn) [Example 21]: in assay [1], the 50% inhibitory concentration (IC50) is no more than 500 nM. In assay [2], the edema inhibitory activity was 30%.

Consider `CCc1ccc(O)c(-c2cc(C3CCCNC3)nc(N)n2)c1` (stereo not drawn) [Example 23], for which, in assay [1], the IC50 is no more than 500 nM. The edema inhibitory activity in assay [2] came out at 50%.

On to `Nc1nc(-c2c(O)cccc2OCC2CC2)cc(C2CCCNC2)n1` (stereo not drawn) [Example 37], for which, in assay [1], the IC50 was no more than 500 nM. In addition, in assay [3], the “inhibition of cumulative rheumatoid arthritis score” value was roughly 100%.

For the molecule `Nc1nc(-c2c(O)cccc2OCC2CCC2)cc(C2CCCNC2)n1` (stereo not drawn) [Example 85], in assay [1], the IC50 is no more than 500 nM. Also, the inhibition in vivo at 30 mg/kg in assay [4] is 85%. In addition, the “inhibition of cumulative rheumatoid arthritis score” value in assay [3] is recorded as roughly 100%.

Regarding `Nc1nc(-c2c(O)cccc2OCC2CCCC2)cc(C2CCCNC2)n1` (stereo not drawn) [Example 92], the IC50 in assay [1] was no more than 500 nM. For the same molecule, in assay [3], the “inhibition of cumulative rheumatoid arthritis score” value is given as roughly 100%.

In the case of `CN(Cc1cnc2nc(N)nc(N)c2n1)c1ccc(C(=O)N[C@@H](CCC(=O)O)C(=O)O)cc1` [Methotrexate, reference compound], the “effect on carrageenan paw edema” value in assay [2] (dose not given) is reported as “did not exhibit an effect”.
